Five sequences from PMC2856764 (Human immunology, 2010) can be followed below.

Holding throughout (assay): biochemical
Type in all cases: binding

Assay [1] addresses HLA-A*2902 (Homo sapiens, UniProt P04439, A270S/D101N/D185E/E176V/E277Q/E87Q/F33T/G231S/H175R/I121M/I218V/I322F/K168Q/L300P/L318F/M331R/P208A/P217A/Q86L/T323A/T345S/V100A/V358M).
In assay [2] the target is HLA-A*3002 (Homo sapiens, UniProt P04439, D101N/D140H/D185E/E176R/F33S/G80R/H175R/K168Q/Q94H/R138E/R41S/V100E).
Assay [3] addresses HLA-A*2301 (Homo sapiens, UniProt P04439, D101N/D140Y/D185E/E176V/E190D/F33S/G103R/G107R/H175R/I119L/I121M/I306V/K168Q/K335N/L105A/L300P/N151K/N90K/P307H/Q86E/Q94H/R106L/R138H/R89G/T104I/T345S/V100E/W191G/Y123F).
Assay [4] addresses HLA-A*2402 (Homo sapiens, UniProt P04439, D101N/D140Y/D185E/E176V/E190D/F33S/G103R/G107R/I119L/I121M/I306V/K335N/L105A/L180Q/L300P/N151K/N90K/Q86E/Q94H/R106L/R138H/R89G/T104I/T345S/V100E/W191G/Y123F).
Assay [5] addresses HLA-B*0702 (Homo sapiens, UniProt P01889).
The target of assay [6] is HLA-B*3501 (Homo sapiens, UniProt P01889, A329T/A93T/A95T/C349S/D201E/D98Y/E176V/E187L/E204Q/E69T/I218V/K202T/L119I/Q94N/R155S/R180L/S121R/S35A/S48A/T118I/V127L/V306I/V36M/Y140S/Y91F).
The target of assay [7] is HLA-B*5101 (Homo sapiens, UniProt P01889, A329T/A93T/A95T/C349S/D138N/D201E/D98Y/E187L/E204Q/E69T/G107R/I218V/K202T/L105A/L119W/N104I/Q94N/R106L/R155S/R180L/S101N/S121T/S35A/S48A/V306I/V36M/Y195H/Y91F).
For assay [8], the target named is HLA-B*5301 (Homo sapiens, UniProt P01889, A329T/A93T/A95T/C349S/D201E/D98Y/E176V/E187L/E204Q/E69T/G107R/I218V/K202T/L105A/L119I/N104I/Q94N/R106L/R155S/R180L/S101N/S121R/S35A/S48A/T118I/V127L/V306I/V36M/Y140S/Y91F).
The target in assay [9] is HLA-B*5401 (Homo sapiens, UniProt P01889, A329T/C349S/D138N/D201E/E176V/E187T/E204Q/E69G/I76V/K202T/L119W/R155S/R180L/S121T/S35A/S48A/V127L/V306I/V36M/Y140L).
For assay [10], the target named is HLA-A*0101 (Homo sapiens, UniProt P04439, A114D/A174V/A182V/D101N/D185E/E176A/E190D/L180R/Q94H/R68K/S129P/T187R/V100A/V91M/W191G).
The target of assay [11] is HLA-A*2601 (Homo sapiens, UniProt P04439, A114D/A173T/A270S/D101N/D185E/E277Q/E87N/F33Y/G231S/I121R/I218V/K168Q/L180W/L300P/L318F/P208A/P217A/Q86R/Q94H/R138Q/S129P/T187R/T323A/T345S/V100A/V358M).

Ends that are not written are not given here.

By IC50 is commonly meant the concentration that gives 50% inhibition. A lower IC50 goes with greater potency in that assay. For the sequence FYIQMCTEL [NP.39], the IC50 was 1560 nM in assay [1], over 10000 nM in assay [2], 8 nM in assay [3] and 24 nM in assay [4].
Consider FYRYGFVANF [PB1.496], for which the IC50 was 812 nM in assay [1], over 10000 nM in [2], 13 nM in assay [3] and 17 nM in assay [4].
With LPRRSGAAGA [NP.172], the IC50 is 2 nM in [5]; over 10000 nM in [6]; over 10000 nM in assay [7]; over 10000 nM in assay [8]; 47 nM in assay [9].
As for LVSDGGPNLY [PB1.590], the half-inhibitory concentration (IC50) in [10] came out at 399 nM; in assay [11], 156 nM; in [1], 479 nM; in assay [2] it was 57 nM.
In the case of YSHGTGTGY [PB1.30], the half-inhibitory concentration (IC50) in [10] stood at 199 nM; in [11], 5 nM; in assay [1], 486 nM; in assay [2] it was 131 nM.
